Assay results: ChEMBL document CHEMBL4138299, “Discovery of 3,3'-Spiro[Azetidine]-2-oxo-indoline Derivatives as Fusion Inhibitors for Treatment of RSV Infection” (ACS Med Chem Lett, 2018)

What was measured:
[1] = Cytotoxicity against human Hep2 cells after 5 days by CCK8 assay; conditions: HEp-2 cells
in vivo [2] = conditions: Balb/c, mouse, po, 10 mg/kg
Description: AUC (0 to infinity) in Balb/c mouse at 10 mg/kg, po administered as single dose via gavage by LC-MS/MS analysis

in vivo [3] = conditions: Balb/c, mouse, po, 10 mg/kg; remark: listed apart in the source
Description: Oral bioavailability in Balb/c mouse at 10 mg/kg administered as single dose via gavage by LC-MS/MS analysis

in vivo [4] = conditions: Balb/c, mouse, iv, 1 mg/kg
Description: AUC (0 to infinity) in Balb/c mouse at 1 mg/kg, iv administered as single bolus dose by LC-MS/MS analysis

[5] = Clearance in Balb/c mouse at 1 mg/kg, iv administered as single bolus dose by LC-MS/MS analysis; conditions: in vivo
Human orthopneumovirus [6] = assay: (§1) Antiviral activity against human respiratory syncytial virus A2 infected in Balb/c mouse assessed as reduction in lung viral load at 15 mg/kg, po administered once daily pretreated for 1 hr on day 0 followed by viral infection and subsequent compound dosing for 3 days measured after 1 day post last dose by plaque assay; assay type: functional
in vivo [7] = conditions: Balb/c, mouse, po, 10 mg/kg; remark: listed apart in the source
Description: Cmax in Balb/c mouse at 10 mg/kg, po administered as single dose via gavage by LC-MS/MS analysis

Human orthopneumovirus [8] = assay: as §1, with “infected in po dosed Balb/c mouse” for “infected in Balb/c mouse”, “viral load administered once” for “viral load at 15 mg/kg, po administered once”; assay type: functional, organism-based
in vivo [9] = conditions: Balb/c, mouse, po, 10 mg/kg; remark: listed apart in the source
Description: Tmax in Balb/c mouse at 10 mg/kg, po administered as single dose via gavage by LC-MS/MS analysis

Human orthopneumovirus [10] = assay: as §1, with “5” for “15”; assay type: functional
[11] = Half life in Balb/c mouse at 1 mg/kg, iv administered as single bolus dose by LC-MS/MS analysis; conditions: in vivo
Human orthopneumovirus [12] = assay: as §1, with “50” for “15”; assay type: functional
[13] = Volume of distribution in Balb/c mouse at 1 mg/kg, iv administered as single bolus dose by LC-MS/MS analysis; conditions: in vivo

OCCCCn1c(Cn2ncc3ccccc32)nc2ccccc21
CC50 at 120 h [1]: > 100 µM

Cc1nc(=O)n(Cc2nc3ccccc3n2CCCCO)c2ccccc12
CC50 at 120 h [1]: > 100 µM

OCCCCn1c(Cn2c(C(F)(F)F)nc3ccccc32)nc2ccccc21
CC50 at 120 h [1]: > 100 µM

O=C1N(Cc2nc3cc(Br)ccc3n2CCCCO)c2ccccc2C12CCN(C1COC1)CC2
CC50 at 120 h [1]: > 100 µM

CC(C)C(=O)N1CCC2(C1)C(=O)N(Cc1nc3cc(Br)ccc3n1CCCCO)c1ccccc12 (stereo unspecified)
CC50 at 120 h [1]: > 100 µM

O=C1N(Cc2nc3cc(F)ccc3n2CCCCO)c2ccccc2C12CC2
CC50 at 120 h [1]: > 100 µM

O=C1N(Cc2nc3ccccc3n2CCCCO)CN(c2ccccc2)C12CCNCC2
CC50 at 120 h [1]: > 100 µM

CC(C)OC(=O)N1CC2(C1)C(=O)N(Cc1nc3cc(Br)ccc3n1CCCCO)c1ccccc12
AUC(0-inf) (in vivo [2]): 8.08 µM·h
bioavailability (in vivo [3]): 71%
AUC(0-inf) (in vivo [4]): 1.13 µM·h
clearance [5]: 28 mL/min/kg
log(activity) (Human orthopneumovirus [6]): 2.05
Cmax (in vivo [7]): 3.32 µM
CC50 at 120 h [1]: > 100 µM
Activity (Human orthopneumovirus [8]): Dose-dependent effect
Tmax (in vivo [9]): 15 min
log(activity) (Human orthopneumovirus [10]): 1.64
half-life [11]: 84 min
log(activity) (Human orthopneumovirus [12]): 3.91
Vd [13]: 1.6 L/kg

Cc1cc(=O)n(Cc2nc3ccccc3n2CCCCO)c2ccccc12
CC50 at 120 h [1]: > 100 µM

CC1CC(=O)N(Cc2nc3ccccc3n2CCCCO)c2ccccc2N1 (stereo unspecified)
CC50 at 120 h [1]: > 100 µM

O=C1NC(=O)C2(N1)C(=O)N(Cc1nc3cc(Br)ccc3n1CCCCO)c1ccccc12 (stereo unspecified)
CC50 at 120 h [1]: > 100 µM

CN1CCC2(CC1)C(=O)N(Cc1nc3cc(Br)ccc3n1CCCCO)c1ccccc12
CC50 at 120 h [1]: > 100 µM

O=C1N(Cc2nc3cc(C(F)(F)F)ccc3n2CCCCO)c2ccccc2C12CC2
CC50 at 120 h [1]: > 100 µM

Cc1nn(Cc2nc3ccccc3n2CCCCO)c2c1CCCC2
CC50 at 120 h [1]: > 100 µM

CN1CC2(C1)C(=O)N(Cc1nc3cc(Br)ccc3n1CCCCO)c1ccccc12
CC50 at 120 h [1]: > 100 µM

OCCCCn1c(Cn2c(-c3cscn3)nc3ccccc32)nc2ccccc21
CC50 at 120 h [1]: > 100 µM

OCCCCn1c(Cn2ncc3ccncc32)nc2ccccc21
CC50 at 120 h [1]: > 100 µM

O=C1N(Cc2nc3cc(Br)ccc3n2CCCCO)c2ccccc2C12CCOCC2
CC50 at 120 h [1]: > 100 µM

O=C1N(Cc2nc3cc(Br)ccc3n2CCCCO)c2ccccc2C12CC2
CC50 at 120 h [1]: > 100 µM

CC(C)C(=O)N1CC2(C1)C(=O)N(Cc1nc3cc(Br)ccc3n1CCCCO)c1ccccc12
CC50 at 120 h [1]: > 100 µM

O=C1N(Cc2nc3cc(Br)ccc3n2CCCCO)c2ccccc2C12CCOC2 (stereo unspecified)
CC50 at 120 h [1]: > 100 µM

CS(=O)(=O)N1CC2(C1)C(=O)N(Cc1nc3cc(Br)ccc3n1CCCCO)c1ccccc12
CC50 at 120 h [1]: > 100 µM

O=C1N(Cc2nc3ccccc3n2CCCCO)c2cc(F)ccc2C12CC2
CC50 at 120 h [1]: > 100 µM

N#Cc1cn(Cc2nc3ccccc3n2CCCCO)c2ccccc12
CC50 at 120 h [1]: > 100 µM

Cc1nn(Cc2nc3ccccc3n2CCCCO)c2ccccc12
CC50 at 120 h [1]: > 100 µM

O=C1N(Cc2nc3ccccc3n2CCCCO)c2cnccc2C12CC2
CC50 at 120 h [1]: > 100 µM

N#Cc1ccc2c(c1)nc(CN1C(=O)C3(CC3)c3ccccc31)n2CCCCO
CC50 at 120 h [1]: > 100 µM

CC1(C)C(=O)N(Cc2nc3ccccc3n2CCCCO)c2ccccc21
CC50 at 120 h [1]: > 100 µM

Cc1ccc2c(c1)nc(CN1C(=O)C3(CC3)c3ccccc31)n2CCCCO
CC50 at 120 h [1]: > 100 µM

O=C1N(Cc2nc3cc(Br)ccc3n2CCCCO)c2ccccc2C12CSC2
CC50 at 120 h [1]: > 100 µM

Cc1c2c(nn1Cc1nc3ccccc3n1CCCCO)CCCC2
CC50 at 120 h [1]: > 100 µM

CN1CCOC2(C1)C(=O)N(Cc1nc3cc(Br)ccc3n1CCCCO)c1ccccc12 (stereo unspecified)
CC50 at 120 h [1]: > 100 µM

O=C1N(Cc2nc3cc(Cl)ccc3n2CCCCO)c2ccccc2C12CC2
CC50 at 120 h [1]: > 100 µM

O=C1N(Cc2nc3cc(Br)ccc3n2CCCCO)c2ccccc2C12CNC2
CC50 at 120 h [1]: > 100 µM

OCCCCn1c(Cn2c3c(c4ccccc42)CCNC3)nc2ccccc21
CC50 at 120 h [1]: > 100 µM

CC(C)OC(=O)N1CCC2(C1)C(=O)N(Cc1nc3cc(Br)ccc3n1CCCCO)c1ccccc12 (stereo unspecified)
CC50 at 120 h [1]: > 100 µM

O=C1N(Cc2nc3cc(C4CCCCC4)ccc3n2CCCCO)c2ccccc2C12CC2
CC50 at 120 h [1]: > 100 µM

CS(=O)(=O)N1CCC2(C1)C(=O)N(Cc1nc3cc(Br)ccc3n1CCCCO)c1ccccc12 (stereo unspecified)
CC50 at 120 h [1]: > 100 µM

O=C1N(Cc2nc3ccccc3n2CCCCO)c2ccccc2C12CC2
CC50 at 120 h [1]: > 100 µM

O=C1N(Cc2nc3cc(I)ccc3n2CCCCO)c2ccccc2C12CC2
CC50 at 120 h [1]: > 100 µM

O=C1N(Cc2nc3cc(Br)ccc3n2CCCCO)c2ccccc2C12CS(=O)(=O)C2
CC50 at 120 h [1]: > 100 µM

NCc1ccc2c(c1)nc(CN1C(=O)C3(CC3)c3ccccc31)n2CCCCO
CC50 at 120 h [1]: > 100 µM

OCCCCn1c(Cn2ccc3ccncc32)nc2ccccc21
CC50 at 120 h [1]: > 100 µM

O=c1oc2ccccc2n1Cc1nc2ccccc2n1CCCCO
CC50 at 120 h [1]: > 100 µM
